{
  "source": "patent US8178579B2",
  "about": "“Dioxanes and uses thereof” (President and Fellows of Harvard College, priority 2001, dated 2012)",
  "key": {"HDAC6": {"molecular_target": "T1, HDAC6 (Homo sapiens, UniProt Q9UBN7)", "T1 sequence (Q9UBN7 1-1215)": "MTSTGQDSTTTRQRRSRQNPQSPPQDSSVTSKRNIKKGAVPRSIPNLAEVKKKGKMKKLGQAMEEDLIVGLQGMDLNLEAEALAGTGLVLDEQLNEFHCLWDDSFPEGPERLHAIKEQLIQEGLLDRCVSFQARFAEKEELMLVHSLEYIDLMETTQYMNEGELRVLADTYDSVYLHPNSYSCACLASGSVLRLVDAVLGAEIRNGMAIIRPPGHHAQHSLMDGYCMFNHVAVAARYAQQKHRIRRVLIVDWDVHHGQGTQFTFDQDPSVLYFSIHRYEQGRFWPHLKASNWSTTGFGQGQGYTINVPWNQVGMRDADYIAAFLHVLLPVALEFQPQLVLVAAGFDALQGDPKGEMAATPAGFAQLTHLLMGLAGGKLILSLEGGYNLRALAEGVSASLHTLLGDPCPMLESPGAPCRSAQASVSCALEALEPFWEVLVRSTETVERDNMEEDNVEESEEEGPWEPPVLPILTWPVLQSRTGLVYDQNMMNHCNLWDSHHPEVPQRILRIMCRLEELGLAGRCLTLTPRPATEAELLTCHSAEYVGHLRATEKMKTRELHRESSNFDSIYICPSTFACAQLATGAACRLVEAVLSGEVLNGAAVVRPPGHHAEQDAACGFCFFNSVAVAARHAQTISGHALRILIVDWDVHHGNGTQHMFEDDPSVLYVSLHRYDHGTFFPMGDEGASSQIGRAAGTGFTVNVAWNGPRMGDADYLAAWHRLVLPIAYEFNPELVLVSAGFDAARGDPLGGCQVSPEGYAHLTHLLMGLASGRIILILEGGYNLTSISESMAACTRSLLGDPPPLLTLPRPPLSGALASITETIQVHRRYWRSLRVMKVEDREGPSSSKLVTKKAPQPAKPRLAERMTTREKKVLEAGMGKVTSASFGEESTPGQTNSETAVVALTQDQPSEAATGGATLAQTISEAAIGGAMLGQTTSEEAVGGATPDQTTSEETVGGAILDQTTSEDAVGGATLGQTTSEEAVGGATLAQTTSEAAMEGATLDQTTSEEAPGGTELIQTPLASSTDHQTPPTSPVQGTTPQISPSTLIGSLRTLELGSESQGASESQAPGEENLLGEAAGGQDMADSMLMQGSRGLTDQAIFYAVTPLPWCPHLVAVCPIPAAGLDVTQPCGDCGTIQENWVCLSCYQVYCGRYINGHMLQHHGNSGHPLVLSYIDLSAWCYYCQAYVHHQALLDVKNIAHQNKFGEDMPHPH", "test": "HDAC assay, [3H]acetate-incorporated histones with immunoprecipitated FLAG-tagged HDAC6 (HDAC6F)", "type": "biochemical", "design": "made in house; host or cells: TAg Jurkat cells, transient transfection, anti-FLAG M2 immunoprecipitation", "details": "calculated IC50, data in duplicate, at least two experiments; read-out: IC50 against HDAC6", "procedure": "(§1) Cell culture and Transfections. TAg-Jurkat cells were transfected by electroporation with 5 μg of FLAG-epitope-tagged pBJ5 constructs (as described in ref. 5c) for expression of recombinant proteins. Cells were harvested 48 h posttransfection.\nHDAC assays. […] Compounds were added in DMSO such that final assay concentrations were 1% DMSO. IC50s were calculated using Prism 3.0 software. Curve fitting was done without constraints using the program's Sigmoidal-Dose Response parameters. All data points were acquired in duplicate and IC50s are calculated from the composite results of at least two separate experiments.\nTubulin and MAPs were isolated from bovine brain as described [See http://mitchison.med.harvard.edu/protocols/tubprep.html]. Whole brain and fractions from phosphocellulose chromatography were blotted for HDAC6 and acetylated α-tubulin. Cultured hippocampal neurons from dissociated 1-day old rat brains were transfected with an enhanced green fluorescent protein (EGFP)-actin construct at 4-5 days using the calcium phosphate method [E. N. Star, D. J. Kwiatkowski and V. N. Murthy, Nat. Neurosci. […] K. Miranti and M. E. Greenberg, J. Neurosci. […] Transfected cultures were allowed to grow for at least 48 h before the addition of experimental compounds.\n[^3H]Acetate-incorporated histones were isolated from butyrate-treated HeLa cells as described [J. Taunton, C. […] Immunoprecipitates were incubated with acetylated histones and HDAC activity determined by scintillation counting as described [J. Taunton, C. […] TDAC assays were performed with immunoprecipitates using MAP-stabilized microtubules polymerized from MAP-rich tubulin fraction as described [C. […] Reactions were incubated (2 h) at 37° C., then incubated on ice (15 min)."}, "[1]": {"test_system": "cyclin B degradation pathway", "test": "Xenopus laevis oocyte extract assay of cyclin B degradation", "details": "4 μL assay volume", "from_the_text": "(§2) Biologically active 1,3-dioxanes have been identified in phenotypic assays in cell culture, zebrafish, and Xenopus laevis oocyte extract (FIG. 22)."}, "HDAC1": {"molecular_target": "T2, HDAC1 (Homo sapiens, UniProt Q13547)", "T2 construct": "made in house; host or cells: TAg-Jurkat cells, transient transfection, then immunoprecipitation", "T2 sequence (Q13547 whole entry)": "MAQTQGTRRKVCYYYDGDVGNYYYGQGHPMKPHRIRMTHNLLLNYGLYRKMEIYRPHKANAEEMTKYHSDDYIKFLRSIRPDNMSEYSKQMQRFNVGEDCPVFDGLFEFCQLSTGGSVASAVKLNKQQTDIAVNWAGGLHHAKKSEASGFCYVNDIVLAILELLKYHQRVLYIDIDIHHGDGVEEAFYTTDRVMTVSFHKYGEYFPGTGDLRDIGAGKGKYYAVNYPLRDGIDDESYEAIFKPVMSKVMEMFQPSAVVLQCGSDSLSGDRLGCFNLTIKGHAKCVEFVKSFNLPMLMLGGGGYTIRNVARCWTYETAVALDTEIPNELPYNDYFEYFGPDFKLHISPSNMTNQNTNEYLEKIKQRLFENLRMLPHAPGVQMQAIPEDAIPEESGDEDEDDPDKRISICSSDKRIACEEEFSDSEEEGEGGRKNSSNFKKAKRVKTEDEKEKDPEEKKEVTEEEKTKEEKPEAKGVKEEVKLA", "test": "HDAC assay, [3H]acetate-incorporated histones with immunoprecipitated FLAG-tagged HDAC1", "type": "biochemical", "details": "calculated IC50, data in duplicate, at least two experiments; read-out: IC50 against HDAC1", "procedure": "as §1\nHDAC assays. [^3H]Acetate-incorporated histones were isolated from butyrate-treated HeLa cells by hydroxyapatite chromatography (as described in Tong, et al. Nature 1997, 395, 917-921.) Immunoprecipitates were incubated with 1.4 μg (10,000 dpm) histones for 3 h at 37° C. HDAC activity was determined by scintillation counting of the ethyl acetate-soluble [^3H]acetic acid (as described in Taunton, et al., Science 1996, 272, 408-411). Compounds were added in DMSO such that final assay concentrations were 1% DMSO. IC50s were calculated using Prism 3.0 software. Curve fitting was done without constraints using the program's Sigmoidal-Dose Response parameters. All data points were acquired in duplicate and IC50s are calculated from the composite results of at least two separate experiments."}, "cyclin B degradation": {"test_system": "cyclin B degradation", "test": "cyclin B degradation assay in HeLa cells", "type": "cell-based", "details": "30 μL assay volume", "from_the_text": "as §2"}, "[2]": {"test_system": "α-tubulin acetylation in the presence of ITSA1", "details": "cited from earlier work"}, "α-tubulin deacetylation": {"test_system": "α-tubulin deacetylation", "details": "cited from earlier work"}, "human FKBP12": {"molecular_target": "human FKBP12 (Homo sapiens, UniProt P62942)", "sequence (P62942 whole entry)": "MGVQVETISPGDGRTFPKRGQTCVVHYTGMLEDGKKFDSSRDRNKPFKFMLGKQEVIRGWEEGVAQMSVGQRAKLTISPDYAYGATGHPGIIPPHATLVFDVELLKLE", "test": "small molecule microarray protein-binding assay", "details": "labeled protein", "procedure": "In addition to phenotypic assays, over fifty protein-binding assays have been performed with the 1,3-dioxane library using small molecule microarrays (MacBeath et al. J. Am. Chem. Soc. 1999, 121, 7967-7968; Peterson et al. Proc. Natl. Acad. Sci. U.S.A. 2000, 97, 12965-12969). The microarrays were constructed by covalent attachment of […] of each stock solution to a glass slide using a contact printing robot. Labeled proteins were used to probe the microarray for small molecule partners."}},
  "data": [
    {"compound": "C[C@H]1[C@@H](CN2CCC3(CC2)OCCO3)OC(c2cccc(NS(=O)(=O)c3ccccc3)c2)O[C@H]1c1ccc(CO)cc1", "note": "(mixture of isomers) [compound 10, (±)-N-[3-[(4S,5R,6R)-4-(1,4-dioxa-8-azaspiro[4.5]dec-8-ylmethyl)-6-[4-(hydroxymethyl)phenyl]-5-methyl-1,3-dioxan-2-yl]phenyl-benzenesulfonamide]", "values": [
      {"measurement": "IC50", "setting": "HDAC6", "result": "~1000", "unit": "nM"},
      {"measurement": "activity in Xenopus laevis oocyte extract cyclin B degradation assay", "setting": "[1]", "result": "Neither set of compounds was active in both assay systems"},
      {"measurement": "IC50", "setting": "HDAC1", "result": "~1000", "unit": "nM"},
      {"measurement": "activity in HeLa cell cyclin B degradation assay", "setting": "cyclin B degradation", "result": "inhibitory activity"}
    ]},
    {"compound": "CC(=O)O[C@H]1C(=O)[C@@]2(C)[C@H]([C@H](OC(=O)c3ccccc3)[C@]3(O)C[C@H](OC(=O)[C@H](O)[C@@H](NC(=O)c4ccccc4)c4ccccc4)C(C)=C1C3(C)C)[C@]1(OC(C)=O)CO[C@@H]1C[C@@H]2O", "note": "[taxol, Paclitaxel]", "values": [
      {"measurement": "suppression by ITSA1, stated as known", "setting": "[2]", "result": "is not suppressed by ITSA1"},
      {"measurement": "effect on α-tubulin acetylation, stated as known", "setting": "α-tubulin deacetylation", "result": "increases α-tubulin acetylation due to direct stabilization of microtubules"}
    ]},
    {"compound": "(αS)-2-acetyloxy)-N-[[4-[(4R,5S,6S)-4-[4-(hydroxymethyl)phenyl]-6-[[4,5-d]phenyl-2-oxazolyl)thio]methyl]61,3-dioxan-2-yl]phenyl]methyl-propionamide [compound 14]", "values": [
      {"measurement": "binding to human FKBP12 on small molecule microarray", "setting": "human FKBP12", "result": "bind to human FKBP12"}
    ]}
  ]
}
